Read-outs that look alike come from different tables or passages of the source.
Experiments:
[1] = Plasma pharmacokinetics after single oral dose, phase I; data geometric mean (coefficient of variation), t max median (range); assay type: in vivo, healthy men; conditions: for AUC(0-inf) / AUC(0-t) / Cmax / Tmax / Vd/F / half-life: male, human, plasma; for Tmax: median (range); for Vd/F: read-out: Vz/F
Experimental: Participants fasted overnight for at least 10 hours before dosing. […] Participants resided at the study centre until 48 hours postdose and attended a follow‐up visit 7–10 days after dosing.
This dose was selected by the Safety Review Committee based on all available data for one or more higher doses in part A. Participants once again resided at the study centre until 48 hours postdose and attended a follow‐up visit 7–10 days after dosing.
Blood samples were collected only up to 48 hours after dosing for the first cohort; the sampling schedule was amended thereafter to include the later time points. Samples for determination of AZD4831 in plasma were analysed by Covance Laboratories Ltd. (Harrogate, UK). […] This method was validated prior to sample analysis in the range 2–2000 nmol L^−1 in plasma, using a 25 μL sample aliquot.

serum uric acid = experiment: Serum uric acid (urate), exploratory pharmacodynamic outcome; table data mean (standard deviation); assay type: in vivo, healthy men; conditions: for decrease in mean serum uric acid concentration: 48 hours after dosing
Text: The primary objective of the study was to evaluate the safety and tolerability of AZD4831 in healthy volunteers.
Data are mean (standard deviation).

[2] = parameters: method as in E Michaëlsson et al., manuscript in preparation; conditions: ref E Michaëlsson et al., manuscript in preparation; cited from earlier work
myeloperoxidase = test system: myeloperoxidase; parameters: method as in E Michaëlsson et al., manuscript in preparation; conditions: in vitro, unpublished; ref E Michaëlsson et al., manuscript in preparation; cited from earlier work
[3] = test system: urate anion exchanger 1 (URAT1; SLC22A12); parameters: method as in E Michaëlsson et al., manuscript in preparation; conditions: in vitro; ref E Michaëlsson et al., manuscript in preparation; cited from earlier work
CYP3A4 = test system: CYP3A4; parameters: method as in unpublished data; conditions: in vitro; ref unpublished data; cited from earlier work
[4] = 45 mg after high-fat, high-calorie meal vs fasting

Question: For C[C@@H](N)c1cc(Cl)ccc1Cn1c(=S)[nH]c(=O)c2[nH]ccc21 [AZD4831], which “delay of t max by food” value [1, 4] is on record?
Answer: Its value is 2.5 h.

Question: And the “reduction of Cmax by food” value [1, 4]?
Answer: Its value is 44%.

Question: What about the “effect of food on AUC0–∞” value ([1]; 45 mg fed vs fasted) of the same compound?
Answer: The value was “slightly reduced”.

Question: What about the “effect of food on t 1/2λz” value ([1]; 45 mg fed vs fasted) of the same compound?
Answer: The value was “slightly increased”.

Question: And the AUC(0-inf) ([1]; oral, 5 mg, 5 mg fasted)?
Answer: The AUC(0-inf) was 0.514 µM·h.

Question: What about the AUC(0-t) ([1]; oral, 5 mg, 5 mg fasted) of the same compound?
Answer: The AUC(0-t) was 0.294 µM·h.

Question: What about the Cmax ([1]; oral, 5 mg, 5 mg fasted) of the same compound?
Answer: Its Cmax is 15 nM.

Question: And the Tmax ([1]; oral, 5 mg, 5 mg fasted)?
Answer: Its Tmax is 1 h.

Question: And the Vd/F ([1]; oral, 5 mg, 5 mg fasted, n = 4)?
Answer: The Vd/F was 1580 L.

Question: What about the half-life ([1]; oral, 5 mg, 5 mg fasted, n = 4, read-out: t 1/2λz (converted)) of the same compound?
Answer: Its half-life is 37.6 h.

Question: What about the AUC(0-inf) ([1]; oral, 15 mg, 15 mg fasted) of the same compound?
Answer: Its AUC(0-inf) is 1.67 µM·h.

Question: What about the AUC(0-t) ([1]; oral, 15 mg, 15 mg fasted) of the same compound?
Answer: Its AUC(0-t) is 1.44 µM·h.

Question: And the Cmax ([1]; oral, 15 mg, 15 mg fasted)?
Answer: Its Cmax is 83.4 nM.

Question: And the Tmax ([1]; oral, 15 mg, 15 mg fasted)?
Answer: Its Tmax is 0.74 h.

Question: And the Vd/F ([1]; oral, 15 mg, 15 mg fasted)?
Answer: The Vd/F was 1750 L.

Question: What about the half-life ([1]; oral, 15 mg, 15 mg fasted, read-out: t 1/2λz (converted)) of the same compound?
Answer: Its half-life is 45.2 h.

Question: What about the AUC(0-inf) ([1]; oral, 45 mg, 45 mg fasted) of the same compound?
Answer: Its AUC(0-inf) is 6.69 µM·h.

Question: What about the AUC(0-t) ([1]; oral, 45 mg, 45 mg fasted) of the same compound?
Answer: Its AUC(0-t) is 6.13 µM·h.

Question: And the Cmax ([1]; oral, 45 mg, 45 mg fasted)?
Answer: The Cmax was 326 nM.

Question: What about the Tmax ([1]; oral, 45 mg, 45 mg fasted) of the same compound?
Answer: The Tmax was 0.51 h.

Question: What about the Vd/F ([1]; oral, 45 mg, 45 mg fasted) of the same compound?
Answer: Its Vd/F is 1450 L.

Question: What about the half-life ([1]; oral, 45 mg, 45 mg fasted, read-out: t 1/2λz (converted)) of the same compound?
Answer: Its half-life is 49.9 h.

Question: What about the AUC(0-inf) ([1]; oral, 45 mg, 45 mg fed) of the same compound?
Answer: The AUC(0-inf) was 5.79 µM·h.

Question: What about the AUC(0-t) ([1]; oral, 45 mg, 45 mg fed) of the same compound?
Answer: The AUC(0-t) was 5.37 µM·h.

Question: And the Cmax ([1]; oral, 45 mg, 45 mg fed)?
Answer: Its Cmax is 184 nM.

Question: What about the Tmax ([1]; oral, 45 mg, 45 mg fed) of the same compound?
Answer: Its Tmax is 3 h.

Question: What about the Vd/F ([1]; oral, 45 mg, 45 mg fed) of the same compound?
Answer: The Vd/F was 1940 L.

Question: And the half-life ([1]; oral, 45 mg, 45 mg fed, read-out: t 1/2λz (converted))?
Answer: Its half-life is 58 h.

Question: And the Cmax ([1]; oral, 135 mg, 135 mg fasted)?
Answer: Its Cmax is 1090 nM.

Question: And the Tmax ([1]; oral, 135 mg, 135 mg fasted)?
Answer: The Tmax was 0.74 h.

Question: What about the Vd/F ([1]; oral, 135 mg, 135 mg fasted) of the same compound?
Answer: The Vd/F was 1450 L.

Question: And the half-life ([1]; oral, 135 mg, 135 mg fasted, read-out: t 1/2λz (converted))?
Answer: Its half-life is 48.4 h.

Question: And the Cmax ([1]; oral, 405 mg, 405 mg fasted)?
Answer: The Cmax was 3040 nM.

Question: What about the Tmax ([1]; oral, 405 mg, 405 mg fasted) of the same compound?
Answer: Its Tmax is 0.75 h.

Question: What about the Vd/F ([1]; oral, 405 mg, 405 mg fasted) of the same compound?
Answer: Its Vd/F is 1270 L.

Question: And the half-life ([1]; oral, 405 mg, 405 mg fasted, read-out: t 1/2λz (converted))?
Answer: Its half-life is 38.1 h.

Question: And the half-life ([1]; po, single oral doses 5–405 mg fasted, range across doses, read-out: plasma half-life (t 1/2λz estimates))?
Answer: The half-life was 38.2 to 50 h.

Question: And the Urate (serum uric acid; 5 mg fasted, 24 h)?
Answer: Its Urate is 335.1 (75.2) µmol L^–1.

Question: What about the Urate (serum uric acid; 5 mg fasted, 48 h) of the same compound?
Answer: Its Urate is 293.2 (64.0) µmol L^–1.

Question: What about the Urate (serum uric acid; 5 mg fasted, follow up) of the same compound?
Answer: Its Urate is 326.3 (84.2) µmol L^–1.

Question: And the Urate (serum uric acid; 15 mg fasted, 24 h)?
Answer: Its Urate is 364.7 (35.3) µmol L^–1.

Question: And the Urate (serum uric acid; 15 mg fasted, 48 h)?
Answer: Its Urate is 331.6 (30.7) µmol L^–1.

Question: What about the Urate (serum uric acid; 15 mg fasted, 72 h) of the same compound?
Answer: The Urate was 355.7 (25.4) µmol L^–1.

Question: And the Urate (serum uric acid; 15 mg fasted, 96 h)?
Answer: The Urate was 366.5 (25.3) µmol L^–1.

Question: And the Urate (serum uric acid; 15 mg fasted, 120 h)?
Answer: Its Urate is 370.8 (40.4) µmol L^–1.

Question: And the Urate (serum uric acid; 15 mg fasted, follow up)?
Answer: Its Urate is 366.3 (47.1) µmol L^–1.

Question: What about the Urate (serum uric acid; 45 mg fasted, 24 h) of the same compound?
Answer: Its Urate is 361.7 (111.9) µmol L^–1.

Question: And the Urate (serum uric acid; 45 mg fasted, 48 h)?
Answer: Its Urate is 339.8 (113.0) µmol L^–1.

Question: And the Urate (serum uric acid; 45 mg fasted, 72 h)?
Answer: The Urate was 362.1 (111.6) µmol L^–1.

Question: And the Urate (serum uric acid; 45 mg fasted, 96 h)?
Answer: Its Urate is 366.3 (112.8) µmol L^–1.

Question: And the Urate (serum uric acid; 45 mg fasted, 120 h)?
Answer: Its Urate is 382.6 (93.3) µmol L^–1.

Question: And the Urate (serum uric acid; 45 mg fasted, follow up)?
Answer: The Urate was 397.6 (112.6) µmol L^–1.

Question: And the Urate (serum uric acid; 45 mg fed, 24 h)?
Answer: The Urate was 296.4 (62.8) µmol L^–1.

Question: What about the Urate (serum uric acid; 45 mg fed, 48 h) of the same compound?
Answer: Its Urate is 283.0 (57.0) µmol L^–1.

Question: And the Urate (serum uric acid; 45 mg fed, 72 h)?
Answer: Its Urate is 313.2 (47.1) µmol L^–1.

Question: And the Urate (serum uric acid; 45 mg fed, 96 h)?
Answer: The Urate was 316.0 (47.3) µmol L^–1.

Question: And the Urate (serum uric acid; 45 mg fed, 120 h)?
Answer: The Urate was 316.5 (67.1) µmol L^–1.

Question: What about the Urate (serum uric acid; 45 mg fed, follow up) of the same compound?
Answer: Its Urate is 314.0 (77.9) µmol L^–1.

Question: What about the Urate (serum uric acid; 135 mg fasted, 24 h) of the same compound?
Answer: Its Urate is 344.3 (18.6) µmol L^–1.

Question: What about the Urate (serum uric acid; 135 mg fasted, 48 h) of the same compound?
Answer: Its Urate is 311.3 (18.6) µmol L^–1.

Question: What about the Urate (serum uric acid; 135 mg fasted, 72 h) of the same compound?
Answer: The Urate was 339.2 (13.9) µmol L^–1.

Question: What about the Urate (serum uric acid; 135 mg fasted, 96 h) of the same compound?
Answer: The Urate was 346.2 (25.0) µmol L^–1.

Question: And the Urate (serum uric acid; 135 mg fasted, 120 h)?
Answer: The Urate was 365.9 (42.1) µmol L^–1.

Question: What about the Urate (serum uric acid; 135 mg fasted, follow up) of the same compound?
Answer: Its Urate is 370.3 (31.4) µmol L^–1.

Question: And the “decrease in mean serum uric acid concentration” value (serum uric acid; 135 mg, 95% CI 29.15, 114.39, mean predose 383.0 (SD 47.5))?
Answer: The value was 71.77 µmol/L.

Question: What about the Urate (serum uric acid; 405 mg fasted, 24 h) of the same compound?
Answer: Its Urate is 262.8 (65.4) µmol L^–1.

Question: What about the Urate (serum uric acid; 405 mg fasted, 48 h) of the same compound?
Answer: The Urate was 244.6 (51.2) µmol L^–1.

Question: What about the Urate (serum uric acid; 405 mg fasted, 72 h) of the same compound?
Answer: Its Urate is 256.1 (44.7) µmol L^–1.

Question: What about the Urate (serum uric acid; 405 mg fasted, 96 h) of the same compound?
Answer: The Urate was 289.3 (46.2) µmol L^–1.

Question: And the Urate (serum uric acid; 405 mg fasted, 120 h)?
Answer: The Urate was 307.2 (50.9) µmol L^–1.

Question: What about the Urate (serum uric acid; 405 mg fasted, follow up) of the same compound?
Answer: The Urate was 322.2 (59.1) µmol L^–1.

Question: What about the “decrease in mean serum uric acid concentration” value (serum uric acid; 405 mg, 95% CI 58.90, 109.94, mean predose 329.0 (SD 54.2)) of the same compound?
Answer: The value was 84.42 µmol/L.

Question: And the “human plasma protein binding” value [2]?
Answer: The value was 65%.

Question: And the “inhibition of oxidation of xanthine and uric acid by myeloperoxidase” value (myeloperoxidase)?
Answer: Its value is “inhibits”.

Question: What about the “inhibition of URAT1 uric acid transport” value [3] of the same compound?
Answer: The value was “does not inhibit”.

Question: What about the “involvement of CYP3A4 in metabolism” value (CYP3A4) of the same compound?
Answer: The value was “involved in the metabolism”.

Source: PMC6422671 (British Journal of Clinical Pharmacology, 2019)
